Source: PubChem BioAssay AID330 (DTP/NCI, 2004)
“And” between values parts separate entries of the source, which are not always exact repeats. Equal entries are not always repeated. Inconclusive results and toxic doses are left out.

System: P388 leukemia ip, CD2F1 mice, survival T/C
Assay: NCI In Vivo Anticancer Drug Screen. Data for tumor model P388 Leukemia (intraperitoneal) in CD2F1 (CDF1) mice
Conditions: endpoint: median survival time, higher = longer survival
How it was run: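 Mice carrying the transplanted tumor received test compound or vehicle. Survival was recorded in each group, and the value is the treated-group measurement divided by that of the vehicle-treated control group.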

[1] = dose: 100.0 mg/kg/injection, schedule: Q01DX009 (ip), vehicle: saline
[2] = dose: 25.0 mg/kg/injection, schedule: Q01DX009 (ip), vehicle: saline
[3] = dose: 30.0 mg/kg/injection, schedule: Q01DX005 (ip), vehicle: saline with Tween-80
[4] = dose: 60.0 mg/kg/injection, schedule: Q01DX005 (ip), vehicle: saline with Tween-80
[5] = dose: 100.0 mg/kg/injection, schedule: Q01DX001 (ip), vehicle: Klucel (hydroxypropylcellulose) (HPC)
[6] = dose: 200.0 mg/kg/injection, schedule: Q01DX001 (ip), vehicle: Klucel (hydroxypropylcellulose) (HPC)
[7] = dose: 50.0 mg/kg/injection, schedule: Q01DX005 (ip), vehicle: saline
[8] = dose: 100.0 mg/kg/injection, schedule: Q01DX005 (ip), vehicle: saline
[9] = dose: 50.0 mg/kg/injection, schedule: Q01DX005 (ip), vehicle: Klucel (hydroxypropylcellulose) (HPC)
[10] = dose: 100.0 mg/kg/injection, schedule: Q01DX005 (ip), vehicle: Klucel (hydroxypropylcellulose) (HPC)
[11] = dose: 200.0 mg/kg/injection, schedule: Q01DX005 (ip), vehicle: Klucel (hydroxypropylcellulose) (HPC)
[12] = dose: 100.0 mg/kg/injection, schedule: Q04DX003 (ip), vehicle: saline
[13] = dose: 200.0 mg/kg/injection, schedule: Q01DX009 (ip), vehicle: saline with Tween-80
[14] = dose: 50.0 mg/kg/injection, schedule: Q01DX005 (ip), vehicle: saline with Tween-80
[15] = dose: 100.0 mg/kg/injection, schedule: Q01DX005 (ip), vehicle: saline with Tween-80
[16] = dose: 200.0 mg/kg/injection, schedule: Q01DX005 (ip), vehicle: saline with Tween-80
[17] = dose: 50.0 mg/kg/injection, schedule: Q01DX009 (ip), vehicle: saline with Tween-80
[18] = dose: 100.0 mg/kg/injection, schedule: Q01DX009 (ip), vehicle: saline with Tween-80
[19] = dose: 120.0 mg/kg/injection, schedule: Q01DX005 (ip), vehicle: saline with Tween-80
[20] = dose: 240.0 mg/kg/injection, schedule: Q01DX005 (ip), vehicle: saline with Tween-80
[21] = dose: 25.0 mg/kg/injection, schedule: Q01DX009 (ip), vehicle: saline with Tween-80
[22] = dose: 50.0 mg/kg/injection, schedule: Q01DX009 (ip), vehicle: saline

CC(=O)O.CC(=O)[O-].CC(=O)[O-].[Co+3].[NH-]CC[NH-].[NH-]CC[NH-]
T/C [1]: 100 % of control

Oc1ccc(CCl)c2cccnc12
T/C (dose: 12.5 mg/kg/injection, schedule: Q01DX009 (ip), vehicle: saline): 98 % of control
T/C [2]: 101 % of control
T/C [1]: 150 % of control

COc1cc(C2CC(C)(O)Oc3cc4c(cc32)OCO4)cc(OC)c1OC (stereo not given)
T/C [3]: 104 % of control
T/C [4]: 105 % of control and 108 % of control

O=C(NCCNC(=O)c1cc(Cl)cc(Cl)c1O)c1cc(Cl)cc(Cl)c1O
T/C (dose: 15.0 mg/kg/injection, schedule: Q01DX005 (ip), vehicle: saline with Tween-80): 92 % of control
T/C [3]: 92 % of control
T/C [4]: 87 % of control and 89 % of control

COCc1nnc2c(N)nccn12
T/C [5]: 99 % of control
T/C [6]: 93 % of control

O=C1NC2(CCCCC2)C(=O)N1CCCCN(CCCl)CCCl
T/C (dose: 1.5 mg/kg/injection, schedule: Q01DX005 (ip), vehicle: saline): 122 % of control
T/C (dose: 6.0 mg/kg/injection, schedule: Q01DX005 (ip), vehicle: saline): 119 % of control
T/C (dose: 24.0 mg/kg/injection, schedule: Q01DX005 (ip), vehicle: saline): 165 % of control
T/C [7]: 160 % of control
T/C [8]: 187 % of control

CCOC(=O)[C@]12CCC[C@@]1(O)NC(=O)c1cnccc12
T/C (dose: 100.0 mg/kg/injection, schedule: Q04DX003 (ip), vehicle: saline with Tween-80): 100 % of control
T/C (dose: 200.0 mg/kg/injection, schedule: Q04DX003 (ip), vehicle: saline with Tween-80): 97 % of control
T/C (dose: 400.0 mg/kg/injection, schedule: Q04DX003 (ip), vehicle: saline with Tween-80): 93 % of control

O=C1CC(c2ccccc2)=NN1c1ccccc1
T/C [9]: 101 % of control
T/C [10]: 99 % of control
T/C [11]: 95 % of control

O=[N+]([O-])c1ccc2c(N=Nc3c(O)ccc4ccccc34)c(O)cc(S(=O)(=O)O)c2c1
T/C [12]: 100 % of control
T/C (dose: 132.0 mg/kg/injection, schedule: Q01DX009 (ip), vehicle: saline with Tween-80): 109 % of control
T/C [13]: 109 % of control
T/C (dose: 200.0 mg/kg/injection, schedule: Q04DX003 (ip), vehicle: saline): 100 % of control
T/C (dose: 300.0 mg/kg/injection, schedule: Q01DX009 (ip), vehicle: saline with Tween-80): 113 % of control
T/C (dose: 400.0 mg/kg/injection, schedule: Q04DX003 (ip), vehicle: saline): 111 % of control

COc1ccc2ccccc2c1CC(C)O (stereo not given)
T/C [14]: 101 % of control
T/C [15]: 98 % of control
T/C [16]: 102 % of control

CCOC(=O)C(C)(C)Oc1cccc2c1S(=O)(=O)c1ccccc1-2
T/C [17]: 95 % of control
T/C [18]: 93 % of control
T/C [13]: 100 % of control

COc1ccc(CCCc2cc3c(cc2OC)OCO3)cc1
T/C (dose: 60.0 mg/kg/injection, schedule: Q01DX005 (ip), vehicle: Klucel (hydroxypropylcellulose) (HPC)): 100 % of control
T/C (dose: 120.0 mg/kg/injection, schedule: Q01DX005 (ip), vehicle: Klucel (hydroxypropylcellulose) (HPC)): 100 % of control
T/C (dose: 240.0 mg/kg/injection, schedule: Q01DX005 (ip), vehicle: Klucel (hydroxypropylcellulose) (HPC)): 97 % of control

NCC(N)CCC(=O)O (stereo not given)
T/C [7]: 99 % of control
T/C [8]: 105 % of control
T/C (dose: 200.0 mg/kg/injection, schedule: Q01DX005 (ip), vehicle: saline): 105 % of control

CC1(C2CCC3(C)OC3C2)CO1 (stereo not given)
T/C [14]: 100 % of control
T/C [15]: 100 % of control
T/C [16]: 100 % of control

C[C@H](CS)C(=O)N1c2ccccc2C[C@H]1C(=O)O
T/C [4]: 101 % of control
T/C [19]: 104 % of control
T/C [20]: 113 % of control

[Cl][Pt+2][Cl].[NH-]C(c1ccc(Cl)cc1)C([NH-])c1ccc(Cl)cc1 (stereo not given)
T/C (dose: 6.25 mg/kg/injection, schedule: Q04DX002 (ip), vehicle: saline with Tween-80): 124 % of control

CSc1nnc2sc3cc(C)ccc3n12
T/C (dose: 50.0 mg/kg/injection, schedule: Q01DX009 (ip), vehicle: Klucel (hydroxypropylcellulose) (HPC)): 102 % of control
T/C (dose: 100.0 mg/kg/injection, schedule: Q01DX009 (ip), vehicle: Klucel (hydroxypropylcellulose) (HPC)): 103 % of control
T/C (dose: 200.0 mg/kg/injection, schedule: Q01DX009 (ip), vehicle: Klucel (hydroxypropylcellulose) (HPC)): 102 % of control

CCOC(=O)C(CCl)C(C(=O)OCC)C(=O)OCC (stereo not given)
T/C [21]: 117 % of control
T/C [17]: 110 % of control
T/C [18]: 112 % of control

OCC1OC(n2cc(I)c3c2ncn2ccnc32)C(O)C1O (stereo not given)
T/C (dose: 1.56 mg/kg/injection, schedule: Q01DX009 (ip), vehicle: water): 98 % of control
T/C (dose: 3.13 mg/kg/injection, schedule: Q01DX009 (ip), vehicle: water): 102 % of control
T/C (dose: 6.25 mg/kg/injection, schedule: Q01DX009 (ip), vehicle: water): 100 % of control
T/C (dose: 12.5 mg/kg/injection, schedule: Q01DX009 (ip), vehicle: water): 102 % of control
T/C (dose: 25.0 mg/kg/injection, schedule: Q01DX009 (ip), vehicle: water): 106 % of control

Cc1noc(N)c1C
T/C [2]: 98 % of control
T/C [22]: 98 % of control
T/C [1]: 98 % of control
T/C (dose: 200.0 mg/kg/injection, schedule: Q01DX009 (ip), vehicle: saline): 95 % of control

NC(N)=N/N=C/C(Cl)Cl
T/C [2]: 109 % of control
T/C (dose: 25.0 mg/kg/injection, schedule: Q04DX003 (ip), vehicle: saline): 100 % of control
T/C [22]: 100 % of control
T/C (dose: 50.0 mg/kg/injection, schedule: Q04DX003 (ip), vehicle: saline): 100 % of control
T/C [1]: 118 % of control
T/C [12]: 100 % of control and 95 % of control

COC(=O)CCCC1=NCCS1
T/C [14]: 103 % of control
T/C [15]: 103 % of control
T/C [16]: 112 % of control

CC(C)n1c2c(c3ccccc3c1=O)C(=O)c1ccccc1-2
T/C (dose: 12.5 mg/kg/injection, schedule: Q01DX005 (ip), vehicle: saline with Tween-80): 95 % of control
T/C (dose: 25.0 mg/kg/injection, schedule: Q01DX005 (ip), vehicle: saline with Tween-80): 86 % of control
T/C [14]: 86 % of control

O=C(O)Cn1nc([O-])[n+]2ccccc12
T/C [17]: 100 % of control
T/C [18]: 94 % of control
T/C [13]: 110 % of control

CC1(C2=CCCCC2)CCC(=O)NC1=O (stereo not given)
T/C [4]: 100 % of control
T/C [19]: 98 % of control
T/C [20]: 98 % of control

CCC(=O)NNc1cccc(Cl)n1
T/C (dose: 50.0 mg/kg/injection, schedule: Q01DX001 (ip), vehicle: Klucel (hydroxypropylcellulose) (HPC)): 98 % of control
T/C [5]: 94 % of control
T/C [6]: 108 % of control

OC1(C#Cc2ccccc2)c2ccccc2C(O)(C#Cc2ccccc2)c2cnccc21 (stereo not given)
T/C [17]: 95 % of control
T/C [18]: 93 % of control
T/C [13]: 87 % of control

CSc1sc(C#N)c2nc3c(nc12)-c1cccc2cccc-3c12
T/C (dose: 50.0 mg/kg/injection, schedule: Q04DX002 (ip), vehicle: saline with Tween-80): 88 % of control
T/C (dose: 100.0 mg/kg/injection, schedule: Q04DX002 (ip), vehicle: saline with Tween-80): 88 % of control
T/C (dose: 200.0 mg/kg/injection, schedule: Q04DX002 (ip), vehicle: saline with Tween-80): 91 % of control

O=C(O)Cc1ccccc1C(=O)O.[Pb]
T/C [21]: 90 % of control
T/C [17]: 104 % of control
T/C [18]: 86 % of control

CCN(CC)CCCNc1c2c(nc3c(Cl)cccc13)CCCC2
T/C [14]: 100 % of control
T/C [15]: 100 % of control

CCCN(CCC)CC(C)O (stereo not given)
T/C [2]: 95 % of control
T/C [22]: 100 % of control
T/C [1]: 95 % of control

O=C(O)c1cnccc1C(=O)c1ccccc1
T/C [9]: 101 % of control
T/C [10]: 101 % of control
T/C [11]: 92 % of control
